Source: ChEMBL document CHEMBL5523719, “Structure-activity relationship study of new carbazole sulfonamide derivatives as anticancer agents with dual-target mechanism” (Eur J Med Chem, 2024)
Calls of active or inactive are those of the source. No cut-off for these calls is given here.

How the values were obtained:
MCF7 [1] = assay: Induction of cell cycle arrest in human MCF7 cells assessed as accumulation of cells at G0/G1 phase at 25 nM measured after 24 hrs by flow cytometry (reference value: 61.73%); type: functional
[2] = target: Tubulin beta (Homo sapiens) (UniProt P68371+Q9H4B7+Q13509+P04350+Q3ZCM7+P07437+Q13885+Q9BVA1+Q9BUF5+A6NNZ2); assay: Binding affinity to beta-tubulin colchicine binding site in human MCF7 cells assessed as inhibition of EBI-beta-tubulin adduct band formation preincubated for 2 hrs followed by EBI addition measured after 2 hrs by EBI competition based Western blotting analysis; type: cell-based; conditions: dose 12.5-100 nM
KB = assay: Antiproliferation activity against human KB cells measured after 72 hrs incubation by MTT assay; type: functional, cell-based
MCF7 [3] = assay: Induction of apoptosis in human MCF7 cells assessed as necrotic cells at 12.5 nM measured after 48 hrs by AnnexinV/PI double staining assays (reference value: 0.89%); type: functional
NCI/ADR-RES = assay: Antiproliferation activity against human MCF7/ADR cells measured after 72 hrs incubation by MTT assay; type: functional, cell-based
MCF7 [4] = assay: Induction of apoptosis in human MCF7 cells assessed as necrotic cells at 50 nM measured after 48 hrs by AnnexinV/PI double staining assays (reference value: 0.89%); type: functional
MCF7 [5] = assay: Induction of cell cycle arrest in human MCF7 cells assessed as accumulation of cells at G2/M phase at 100 nM measured after 24 hrs by flow cytometry (reference value: 22.84%); type: functional
L02 = assay: Antiproliferation activity against human L02 cells measured after 72 hrs incubation by MTT assay; type: functional, cell-based; conditions: L02, 72 h
MCF7 [6] = assay: Induction of apoptosis in human MCF7 cells assessed as multinuclear cells at 5 nM measured after 24 hrs by fluorescent microscopy; type: functional
MCF7 [7] = assay: Induction of apoptosis in human MCF7 cells assessed as early apoptotic cells at 25 nM measured after 48 hrs by AnnexinV/PI double staining assays (reference value: 5.32%); type: functional
MCF7 [8] = assay: Induction of apoptosis in human MCF7 cells assessed as early apoptotic cells at 12.5 nM measured after 48 hrs by AnnexinV/PI double staining assays (reference value: 5.32%); type: functional
MCF7 [9] = assay: Induction of apoptosis in human MCF7 cells assessed as viable cells at 12.5 nM measured after 48 hrs by AnnexinV/PI double staining assays (reference value: 91.20%); type: functional; conditions: read-out: Activity
Tubulin (Homo sapiens) [10] = target: T1, Tubulin (Homo sapiens) (UniProt P68371+Q9H4B7+P0DPH7+P68366+Q13509+Q71U36+P04350+Q3ZCM7+P07437+P68363+Q9BQE3+Q6PEY2+Q13885+Q9BVA1+Q9BUF5); assay: In vitro inhibition of microtubule (unknown origin) assembly at 10 uM; type: protein-complex assay
HMEC-1 = assay: Anti-proliferative activity against human HMEC-1 cells measured after 48 hrs; type: functional, cell-based; conditions: HMEC-1, 48 h
MCF7 [11] = assay: Induction of apoptosis in human MCF7 cells assessed as viable cells at 50 nM measured after 48 hrs by AnnexinV/PI double staining assays (reference value: 91.20%); type: functional; conditions: read-out: Activity
MCF7 [12] = assay: Induction of apoptosis in human MCF7 cells assessed as karyopyknosis at 5 nM measured after 24 hrs by fluorescent microscopy; type: functional, cell-based
MCF7 [13] = assay: Induction of cell cycle arrest in human MCF7 cells assessed as accumulation of cells at G2/M phase at 4 nM measured after 24 hrs by flow cytometry (reference value: 22.84%); type: functional
Tubulin (Homo sapiens) [14] = target: T1, Tubulin (Homo sapiens); assay: Inhibition of microtubule assembly in human MCF7 cells assessed as disrupted microtubule network at 50 uM measured after 24 hrs incubation by anti-alpha-tubulin antibody (green) and Hoechst 33342 (blue) stained nuclei were obtained under microscopy; type: cell-based
Tubulin (Homo sapiens) [15] = target: T1, Tubulin (Homo sapiens); assay: Inhibition of microtubule assembly in human HepG2 cells assessed as disrupted microtubule network at 50 uM measured after 24 hrs incubation by anti-alpha-tubulin antibody (green) and Hoechst 33342 (blue) stained nuclei were obtained under microscopy; type: cell-based
MCF7 [16] = assay: Induction of apoptosis in human MCF7 cells assessed as viable cells at 6.25 nM measured after 48 hrs by AnnexinV/PI double staining assays (reference value: 91.20%); type: functional; conditions: read-out: Activity
MCF7 [17] = assay: Induction of cell cycle arrest in human MCF7 cells assessed as accumulation of cells at G2/M phase at 25 nM measured after 24 hrs by flow cytometry (reference value: 22.84%); type: functional
MDA-MB-231 = assay: Antiproliferation activity against human MDA-MB-231 cells measured after 72 hrs incubation by MTT assay; type: functional, cell-based; conditions: MDA-MB-231, 72 h
MCF7 [18] = assay: Induction of apoptosis in human MCF7 cells assessed as karyolysis at 1 nM measured after 24 hrs by fluorescent microscopy; type: functional, cell-based
MCF7 [19] = assay: Induction of apoptosis in human MCF7 cells assessed as late apoptotic cells at 6.25 nM measured after 48 hrs by AnnexinV/PI double staining assays (reference value: 2.60%); type: functional
MCF7 [20] = assay: Induction of apoptosis in human MCF7 cells assessed as late apoptotic cells at 25 nM measured after 48 hrs by AnnexinV/PI double staining assays (reference value: 2.60%); type: functional
MCF7 [21] = assay: Induction of apoptosis in human MCF7 cells assessed as early apoptotic cells at 6.25 nM measured after 48 hrs by AnnexinV/PI double staining assays (reference value: 5.32%); type: functional
[22] = target: DNA topoisomerase 2-alpha (Homo sapiens) (UniProt P11388); assay: Inhibition of human DNA topoisomerase 2 assessed as relaxation of supercoiled pBR322 DNA as substrate at 200 uM incubated for 30 mins by gel staining based electrophoresis analysis
Chain of DNA topoisomerase 2-alpha (Homo sapiens) (P11388 whole entry): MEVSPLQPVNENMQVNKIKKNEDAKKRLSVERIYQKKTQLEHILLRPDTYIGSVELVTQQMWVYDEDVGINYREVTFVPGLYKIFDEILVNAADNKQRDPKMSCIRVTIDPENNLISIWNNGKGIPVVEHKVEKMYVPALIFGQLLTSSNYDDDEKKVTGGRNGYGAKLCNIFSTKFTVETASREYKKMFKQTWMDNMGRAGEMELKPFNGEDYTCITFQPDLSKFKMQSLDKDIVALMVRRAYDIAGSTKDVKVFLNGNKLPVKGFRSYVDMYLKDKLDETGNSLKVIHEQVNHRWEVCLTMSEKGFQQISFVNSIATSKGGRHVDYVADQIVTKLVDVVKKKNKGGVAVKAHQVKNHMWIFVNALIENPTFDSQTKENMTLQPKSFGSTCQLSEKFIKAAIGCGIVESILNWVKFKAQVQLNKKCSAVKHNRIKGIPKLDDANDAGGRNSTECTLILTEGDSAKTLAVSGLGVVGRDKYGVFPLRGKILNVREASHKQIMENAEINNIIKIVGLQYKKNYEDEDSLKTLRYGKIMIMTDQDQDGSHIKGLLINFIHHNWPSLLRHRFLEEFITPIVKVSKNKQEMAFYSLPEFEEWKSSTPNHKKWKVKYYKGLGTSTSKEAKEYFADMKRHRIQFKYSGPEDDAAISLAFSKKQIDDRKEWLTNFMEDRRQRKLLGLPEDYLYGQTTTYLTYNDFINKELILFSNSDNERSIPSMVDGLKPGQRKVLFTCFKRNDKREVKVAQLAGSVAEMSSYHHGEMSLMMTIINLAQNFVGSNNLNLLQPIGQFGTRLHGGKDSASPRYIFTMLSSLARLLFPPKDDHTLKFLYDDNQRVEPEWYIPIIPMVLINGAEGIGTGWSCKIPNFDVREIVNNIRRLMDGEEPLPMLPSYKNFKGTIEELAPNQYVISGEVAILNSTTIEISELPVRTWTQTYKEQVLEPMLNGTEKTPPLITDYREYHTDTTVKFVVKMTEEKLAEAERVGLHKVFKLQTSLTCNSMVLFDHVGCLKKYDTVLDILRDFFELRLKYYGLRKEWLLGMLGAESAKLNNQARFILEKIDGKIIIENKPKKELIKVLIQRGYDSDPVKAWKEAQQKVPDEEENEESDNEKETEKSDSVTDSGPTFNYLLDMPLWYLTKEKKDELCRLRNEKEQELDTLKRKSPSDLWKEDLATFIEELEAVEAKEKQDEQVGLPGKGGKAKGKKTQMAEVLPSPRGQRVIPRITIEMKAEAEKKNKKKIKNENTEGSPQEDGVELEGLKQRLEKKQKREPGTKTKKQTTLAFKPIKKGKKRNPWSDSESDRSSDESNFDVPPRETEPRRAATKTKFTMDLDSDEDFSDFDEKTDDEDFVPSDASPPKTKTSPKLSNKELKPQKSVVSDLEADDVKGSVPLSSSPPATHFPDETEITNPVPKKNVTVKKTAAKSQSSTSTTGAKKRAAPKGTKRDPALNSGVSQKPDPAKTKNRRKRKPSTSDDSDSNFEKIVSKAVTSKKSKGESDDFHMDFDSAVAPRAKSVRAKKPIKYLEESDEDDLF

Activity [2]: Active
IC50 (KB): 9.45 nM
inhibition (Tubulin (Homo sapiens) [10]): Active
inhibition (Tubulin (Homo sapiens) [14]): Active
inhibition (Tubulin (Homo sapiens) [15]): Active
IC50 (MDA-MB-231): 31.2 nM
inhibition [22]: inactive
Structure (SMILES): COc1cc(NS(=O)(=O)c2ccc3c(c2)c2ccc(N)cc2n3C)c(OC)cc1Cl
Activity (MCF7 [1]): 36.18%
Activity (MCF7 [3]): 0.14%
IC50 (NCI/ADR-RES): 1.86 nM
Activity (MCF7 [4]): 0.08%
Activity (MCF7 [5]): 41.21%
IC50 (L02): 18.5 nM
Activity (MCF7 [6]): Active
Activity (MCF7 [7]): 46.14%
Activity (MCF7 [8]): 26.99%
viability at 0.0125 µM (MCF7 [9]): 64.2%
IC50 (HMEC-1): 6.42 nM
viability at 0.05 µM (MCF7 [11]): 34.2%
Activity (MCF7 [12]): Active
Activity (MCF7 [13]): 23.3%
viability at 0.00625 µM (MCF7 [16]): 76.1%
Activity (MCF7 [17]): 31.9%
Activity (MCF7 [18]): Active
Activity (MCF7 [19]): 7.06%
Activity (MCF7 [20]): 14.03%
Activity (MCF7 [21]): 16.87%
